The values that follow come from patent US12410160B2 (Gilead Sciences, Inc., priority 2021, dated 2025).

Read-outs that look alike come from different tables or passages of the source. Bounds are passed on as bounds.

The target of one data set is human KHK-C (Homo sapiens (Human), UniProt P50053). Description: KHK Biochemical Assay (IC50), ADP-Glo, KHK-C. To be noted: average of at least two separate assays. An outline of the steps: (§1)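 His-tagged enzyme expressed in BL21 (DE3), Ni-NTA purified. Compounds, serially diluted 1:3 in DMSO, pre-incubated 30 min with enzyme in 50 mM Hepes pH 7.4, 140 mM KCl, 5 mM MgCl2, 0.01% Triton-X, then ATP and fructose added; 4 h at room temperature. ADP formation read by ADP-Glo luminescence.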
human KHK-C, sequence (P50053 whole entry): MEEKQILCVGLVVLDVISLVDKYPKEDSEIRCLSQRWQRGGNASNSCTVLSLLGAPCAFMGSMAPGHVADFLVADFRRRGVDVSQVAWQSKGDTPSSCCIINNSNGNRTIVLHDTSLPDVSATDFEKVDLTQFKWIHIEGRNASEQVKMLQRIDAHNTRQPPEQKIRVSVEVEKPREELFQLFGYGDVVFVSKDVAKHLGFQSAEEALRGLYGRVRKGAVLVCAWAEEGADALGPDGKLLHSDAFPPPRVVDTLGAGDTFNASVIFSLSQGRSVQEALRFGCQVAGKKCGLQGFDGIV

The next data set concerns the target human KHK-A (Homo sapiens (Human), UniProt P50053). Put plainly: KHK Biochemical Assay (IC50), ADP-Glo, KHK-A. The note with it: average of at least two separate assays. An outline of the steps: as §1
Data set [1] in a line: pKa analysis by capillary electrophoresis (pKa PRO Analyzer, co-solvent method). The note with it: co-solvent method (60% to 30% methanol buffers); for 1st pKa: pH range 1.7-11.2; for pKa: methanol/aqueous co-solvent buffers. Type of data set: physicochemical. The procedure: The 10 mM DMSO stock solutions of test articles (TAs) were diluted 100-fold with either 2 mM HCl or 2 mM NaOH and methanol. The final concentration of methanol was 60%, TA concentration was 100 μM, and DMSO concentration was 1%. The TAs were transferred into 24 consecutive wells of a 96-well plate for analysis using the co-solvent method. […] All data was obtained using a pKa. PRO Analyzer (AATI, Ankey, IA) by performing four consecutive CE runs from 60% to 30% co-solvent buffers. Norfloxacin was used as a daily performance-indicating standard. The pKa values were predicted by using pKa. Estimator® software (AATI, Ankey, IA) by relating molecular weight of the TA to its mobility.

For the next data set, the target named is human OATP1B1 (Homo sapiens (Human), UniProt Q9Y6L6). Description: In Vitro Inhibition Assessment with Human OATP1B1 Transporter. The data set is classed as in vitro ADME. To be noted: HEK293-OATP1B1 cells, probe substrate pravastatin. An outline of the steps:
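Pravastatin uptake was measured by LC-MS/MS after a 5 min exposure with inhibitor, following a 15 min inhibitor preincubation, in transfected versus mock HEK293 cells. Transport activity was derived as (transfected − mock) with compound over the same difference with solvent. IC50 is the concentration halving maximal activity; final DMSO was 0.4%.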

The next data set concerns HepG2 cells. Description: F1P Cell-Based Assay (EC50), 13C6-fructose-1-phosphate in HepG2 cells (cell culture medium or 50% human plasma).
The target in data set [2] is KHK-C expressed in NRK-52E cells (Homo sapiens (Human), UniProt P50053). Put plainly: KHK-C Cell-based Assay (EC50), NRK CTG, fructose-mediated ATP-depletion.
KHK-C expressed in NRK-52E cells, sequence (P50053 whole entry): as above
Where [3] appears, read: pH range 1.7-11.2, read-out: 1st pKa.
Setting [4] is: Homo sapiens, HepG2, HepG2 cells, 50% human plasma, read-out: F1P 50% HP EC50.
Setting [5] is: Homo sapiens, HepG2, read-out: F1P 10% FBS EC50, HepG2 cells, cell culture medium (10% FBS).
Where [6] appears, read: pH range 1.7-11.2, read-out: 2nd pKa.

human OATP1B1, sequence (Q9Y6L6 whole entry): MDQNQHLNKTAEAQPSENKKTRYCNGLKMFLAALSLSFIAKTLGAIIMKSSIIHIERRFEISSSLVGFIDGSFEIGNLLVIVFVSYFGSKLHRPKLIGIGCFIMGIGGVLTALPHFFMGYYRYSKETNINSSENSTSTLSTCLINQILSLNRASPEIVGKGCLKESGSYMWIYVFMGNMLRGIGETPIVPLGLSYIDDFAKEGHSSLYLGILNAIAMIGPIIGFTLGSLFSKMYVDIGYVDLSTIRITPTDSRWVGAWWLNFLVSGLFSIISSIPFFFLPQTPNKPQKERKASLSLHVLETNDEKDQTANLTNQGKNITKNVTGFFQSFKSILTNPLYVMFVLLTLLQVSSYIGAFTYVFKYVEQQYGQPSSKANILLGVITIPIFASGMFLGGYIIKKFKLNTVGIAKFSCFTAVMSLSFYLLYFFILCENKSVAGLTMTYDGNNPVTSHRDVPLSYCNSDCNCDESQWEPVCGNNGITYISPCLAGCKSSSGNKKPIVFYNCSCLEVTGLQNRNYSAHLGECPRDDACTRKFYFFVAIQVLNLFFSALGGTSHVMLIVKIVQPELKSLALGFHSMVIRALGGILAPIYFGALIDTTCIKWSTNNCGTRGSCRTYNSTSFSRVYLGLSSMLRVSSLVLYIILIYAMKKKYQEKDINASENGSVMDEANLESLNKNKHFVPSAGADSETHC
human KHK-A, sequence (P50053 other isoform, or with tags, fused parts or gaps): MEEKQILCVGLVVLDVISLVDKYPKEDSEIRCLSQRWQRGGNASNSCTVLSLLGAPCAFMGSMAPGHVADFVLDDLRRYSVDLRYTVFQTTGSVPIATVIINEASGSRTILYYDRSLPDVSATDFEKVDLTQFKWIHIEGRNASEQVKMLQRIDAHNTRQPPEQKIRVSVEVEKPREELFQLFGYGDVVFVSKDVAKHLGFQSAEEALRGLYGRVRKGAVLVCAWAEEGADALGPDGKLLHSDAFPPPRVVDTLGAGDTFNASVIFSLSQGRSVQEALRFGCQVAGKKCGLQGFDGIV

In the case of `C[C@H]1[C@H](F)CN1c1nc(-c2ccc([C@@H](N)CS(C)(=O)=O)cc2)c2c(n1)C(F)(F)CC2` (single isomer, unassigned) [Example 789], the IC50 came out at 3.9 nM against human KHK-C, 12.5 nM at human KHK-A and 19700 nM at human OATP1B1. The “1st pKa” value in data set [1] was determined as 6.4. The EC50 in the data set with HepG2 cells (HepG2 cells, 50% human plasma, read-out: F1P 50% HP EC50) came to 30.6 nM; in the data set with HepG2 cells (read-out: F1P 10% FBS EC50, HepG2 cells, cell culture medium (10% FBS)), 22.7 nM.
Regarding `C[C@H]1[C@H](O)CN1c1nc(-c2ccc([C@]3(N)CCS(=O)(=O)C3)cc2)c2c(n1)C(F)(F)CC2` (single isomer, unassigned) [Example 795], the IC50 at human KHK-C (ADP-Glo) came to 4.6 nM; on human KHK-A (ADP-Glo), 24.1 nM. Also, the EC50 in data set [2] amounted to 54.5 nM; with HepG2 cells (setting [4]), 88.8 nM; with HepG2 cells (setting [5]), 52.7 nM. For the same compound, the pKa in data set [1] (setting [3]) was 4.9.
Turning to `C[C@H]1CCN1c1nc2c(c(-c3cn4ccnc4s3)n1)CCC2` [Example 121, (S)-2-(2-(2-methylazetidin-1-yl)-6,7-dihydro-5H-cyclopenta[d]pyrimidin-4-yl)imidazo[2,1-b]thiazole], the IC50 on human KHK-C (ADP-Glo) came out at 24.1 nM; against human KHK-A (ADP-Glo), 29.3 nM. In data set [2], this compound gave an EC50 of 87.3 nM. Further, the pKa in data set [1] (setting [3]) stood at 3.68; in data set [1] (setting [6]), 5.35.
In the same order, the values of `C[C@H]1CCN1c1nc2c(c(-c3ccc(C4(N)COC4)cc3)n1)CCC2` [Example 131, (S)-3-(4-(2-(2-methylazetidin-1-yl)-6,7-dihydro-5H-cyclopenta[d]pyrimidin-4-yl)phenyl)oxetan-3-amine] are 2.6 nM, 6 nM, 10.9 nM, 4.25 and 6.48.
In the same order, the values of `C[C@H]1CCN1c1nc2c(c(-c3ccc4c(N)nc(N)nc4c3)n1)CCC2` [Example 147, (S)-7-(2-(2-methylazetidin-1-yl)-6,7-dihydro-5H-cyclopenta[d]pyrimidin-4-yl)quinazoline-2,4-diamine] are 18.7 nM, 12.3 nM, 35.3 nM, 3.59 and 6.43.
In the same order, the values of `C[C@H]1CCN1c1nc2c(c(-c3ccc(C4(N)CC4)cc3)n1)CCC2` [Example 295, (S)-1-(4-(2-(2-methylazetidin-1-yl)-6,7-dihydro-5H-cyclopenta[d]pyrimidin-4-yl)phenyl)cyclopropan-1-amine] are 1.4 nM, 2.6 nM, 6.2 nM, 4.25 and 8.01.
Take `C[C@H]1CCN1c1nc2c(c(-c3cccc(CN)c3)n1)CCC2` [Example 329, [3-[2-[(2S)-2-methylazetidin-1-yl]-6,7-dihydro-5H-cyclopenta[d]pyrimidin-4-yl]phenyl]methanamine]: the figures for the IC50 against human KHK-C (ADP-Glo) and against human KHK-A (ADP-Glo) were 18.5 nM and 24.5 nM, respectively. For the same compound, the EC50 in data set [2] is 339 nM. In addition, the figures for the pKa in data set [1] (setting [3]) and in data set [1] (setting [6]) were 4.12 and 9.27, respectively.
Take `C[C@H]1CCN1c1nc2c(c(-c3ccccc3)n1)CCC2` [Example 331, 2-[(2S)-2-methylazetidin-1-yl]-4-phenyl-6,7-dihydro-5H-cyclopenta[d]pyrimidine]: the results for the IC50 against human KHK-C (ADP-Glo) and at human KHK-A (ADP-Glo) were 242 nM and 255 nM, respectively. For the same compound, the values for the EC50 (in data set [2]; in the data set on HepG2 cells (setting [4]); in the data set on HepG2 cells (setting [5])) were 384 nM, 4610 nM and 253 nM, respectively. Further, the pKa in data set [1] (setting [3]) worked out at 4.14.
As for `C[C@H]1CCN1c1nc2c(c(-c3cccc(CN4CCC4)c3)n1)CCC2` [Example 347, 4-[3-(azetidin-1-ylmethyl)phenyl]-2-[(2S)-2-methylazetidin-1-yl]-6,7-dihydro-5H-cyclopenta[d]pyrimidine], the figures for the IC50 against human KHK-C (ADP-Glo) and against human KHK-A (ADP-Glo) were 23.8 nM and 22.7 nM, respectively. In data set [2], this compound returned an EC50 of 17.1 nM. Further, the pKa in data set [1] (setting [3]) was 3.69; in data set [1] (setting [6]), 9.16.
On to `C[C@H]1CCN1c1nc2c(c(-c3ccc4c(c3)CCNC4)n1)CCC2` [Example 379, 6-[2-[(2S)-2-methylazetidin-1-yl]-6,7-dihydro-5H-cyclopenta[d]pyrimidin-4-yl]-1,2,3,4-tetrahydroisoquinoline], for which the results for the IC50 against human KHK-C (ADP-Glo) and against human KHK-A (ADP-Glo) were 4.6 nM and 4.1 nM, respectively. The EC50 turned out to be 2.6 nM in data set [2], 3.1 nM in the data set on HepG2 cells (setting [4]) and 1.3 nM in the data set on HepG2 cells (setting [5]). Also, the pKa in data set [1] (setting [3]) came to 4.31; in data set [1] (setting [6]) it was 9.19.
`C[C@H]1CCN1c1nc2c(c(-c3ccc4cnc(O)cc4c3)n1)CCC2` [Example 380, 6-[2-[(2S)-2-methylazetidin-1-yl]-6,7-dihydro-5H-cyclopenta[d]pyrimidin-4-yl]isoquinolin-3-ol]: the IC50 turned out to be 7.9 nM at human KHK-C (ADP-Glo) and 13 nM on human KHK-A (ADP-Glo). In data set [2], this compound returned an EC50 of 75.7 nM. Besides, the pKa was determined as 4.21 in data set [1] (setting [3]) and 9.04 in data set [1] (setting [6]).
Take `C[C@H]1CCN1c1nc2c(c(-c3ccc4c(O)nc(O)cc4c3)n1)CCC2` [Example 381, 6-[2-[(2S)-2-methylazetidin-1-yl]-6,7-dihydro-5H-cyclopenta[d]pyrimidin-4-yl]isoquinoline-1,3-diol]: the values for the IC50 against human KHK-C (ADP-Glo) and at human KHK-A (ADP-Glo) were 89.7 nM and 18.9 nM, respectively. In data set [2], this compound showed an EC50 above 5000 nM. In addition, the pKa in data set [1] (setting [3]) was found to be 4.12; in data set [1] (setting [6]), 8.07.
For `C[C@H]1CCN1c1nc2c(c(-c3ccc(CNS(C)(=O)=O)s3)n1)CCC2` [Example 460, N-[[5-[2-[(2S)-2-methylazetidin-1-yl]-6,7-dihydro-5H-cyclopenta[d]pyrimidin-4-yl]-2-thienyl]methyl]methanesulfonamide], the results for the IC50 on human KHK-C and against human KHK-A were 5.2 nM and 10.9 nM, respectively. In data set [2], this compound yielded an EC50 of 23.6 nM. Moreover, the pKa in data set [1] (setting [3]) was found to be 4.66; in data set [1] (setting [6]), 11.2.
Turning to `C[C@H]1[C@H](O)CN1c1nc(-c2ccc3c(c2)S(=O)(=O)CCNC3)c2c(n1)C(F)(F)CC2` [Example 489], the IC50 is 3.5 nM against human KHK-C, 5.2 nM against human KHK-A and 2670 nM on human OATP1B1. Further, the pKa in data set [1] (setting [3]) stood at 5.3. In addition, the figures for the EC50 with HepG2 cells (setting [4]) and in the data set on HepG2 cells (setting [5]) were 20.2 nM and 16.5 nM, respectively.
As to `C[C@H]1CCN1c1nc2c(c(-c3ccc4c(c3)OCC4N)n1)CCC2` (stereo partly drawn) [Example 754, 6-[2-[(2S)-2-methylazetidin-1-yl]-6,7-dihydro-5H-cyclopenta[d]pyrimidin-4-yl]-2,3-dihydrobenzofuran-3-amine], the midpoint of inhibition against human KHK-C, the IC50, lay at 1.9 nM. The EC50 is 14.6 nM in data set [2] and 11.7 nM in the data set with HepG2 cells (setting [4]). Besides, the pKa in data set [1] (setting [3]) came out at 4.2.
With `C[C@H]1[C@H](F)CN1c1nc(-c2ccc([C@]3(N)C[S@@](=N)(=O)C3)cc2)c2c(n1)C(F)(F)CC2` [Example 797, (1R,3s)-3-amino-3-(4-(7,7-difluoro-2-((2S,3R)-3-fluoro-2-methylazetidin-1-yl)-6,7-dihydro-5H-cyclopenta[d]pyrimidin-4-yl)phenyl)-1-imino-1λ^6-thietane 1-oxide], the IC50 is 0.2 nM on human KHK-C (ADP-Glo) and 7.3 nM against human KHK-A (ADP-Glo). Further, in data set [2] (read-out: NRK CTG EC50, NRK-52E cells, Cell-Titer Glo, 25 mM fructose, 48 hours), the EC50 came out at 16.4 nM. Besides, the “1st pKa” value in data set [1] was 4.7.
With `NC1(c2ccc(-c3nc(N4CC[C@@H]4C(F)(F)F)nc4c3CCC4(F)F)cc2)CS(=O)(=O)C1` [Example 802, (R)-3-amino-3-(4-(7,7-difluoro-2-(2-(trifluoromethyl)azetidin-1-yl)-6,7-dihydro-5H-cyclopenta[d]pyrimidin-4-yl)phenyl)thietane 1,1-dioxide], in data set [1] (setting [3]), the pKa was 4.6. On human OATP1B1, the IC50 was 10600 nM.
